Assay results reported in patent EP0298890A2, “New 2-(P-isobutylphenyl)-propionic acid ester and process for the preparation thereof” (Sune Coma, Nuria, priority 1987, dated 1989).

Legend:
rat [1] = assay: carrageenin test p.o. in the rat (antiinflammatory effect); assay type: in vivo; settings: comparison of ED₅₀ values
rat [2] = assay: phenylbenzoquinone test p.o. in the rat (analgesic effect); assay type: in vivo; settings: comparison of ED₅₀ values
solubility in water = assay type: physicochemical; settings: qualitative statement, no method given

SMILES: CC(C)Cc1ccc(C(C)C(=O)OCCN(C)C)cc1 (stereo not drawn) [I, N,N-dimethylaminoethanol 2-(p-isobutylphenyl)-propionate]
- antiinflammatory activity compared with the formula II compound (rat [1]): same antiinflammatory activity
- analgesic activity compared with the formula II compound (rat [2]): twice as active as an analgesic
- solubility in water compared with the formula II acid (solubility in water): more soluble in water
